This test has as its target T1, GR from baker's yeast (S. cerevisiae) (Saccharomyces cerevisiae, UniProt P41921).
T1 sequence (P41921 17-483 limits assumed): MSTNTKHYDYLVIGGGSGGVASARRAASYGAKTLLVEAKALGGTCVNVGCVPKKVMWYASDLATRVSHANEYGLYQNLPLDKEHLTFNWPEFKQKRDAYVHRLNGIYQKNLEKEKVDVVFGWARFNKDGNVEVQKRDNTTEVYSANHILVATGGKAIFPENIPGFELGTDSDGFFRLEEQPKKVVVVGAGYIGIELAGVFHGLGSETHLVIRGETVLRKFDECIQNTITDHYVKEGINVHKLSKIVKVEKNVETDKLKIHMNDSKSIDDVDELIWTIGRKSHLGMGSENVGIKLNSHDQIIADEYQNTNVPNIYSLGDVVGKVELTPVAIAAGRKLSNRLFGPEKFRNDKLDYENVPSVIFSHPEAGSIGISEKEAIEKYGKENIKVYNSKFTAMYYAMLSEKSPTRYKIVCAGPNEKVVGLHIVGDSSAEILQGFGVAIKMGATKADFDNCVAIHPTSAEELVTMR
The test is described as follows: Glutathione reductase inhibition (Beutler's method, NADPH and GSSG as substrates). The format is biochemical. The note with it: 25 °C, pH 8.0; mean from at least three determinations, errors ±3%; read-out: IC50 values obtained from regression analysis graphs for GR enzyme. The procedure:
Activity of the glutathione enzyme was measured by Beutler’s method[22] in which one enzyme unit is defined as the oxidation of […] NADPH per min under the assay condition at 25 °C, pH 8.0. Different concentrations of the inhibitors were applied to the enzyme solutions and all compounds were tested in triplicate at each concentration used[18–21]. Control cuvette activity was assumed as 100% in the absence of inhibitor. A graphic of activity-versus inhibitor concentration was drawn for each compound (Figure 3).
In this work, we reported GR inhibitory capacity of N-methylpyrrole derivatives (8a-r). As known, glutathione reductase has been purified from various organisms and the influences of drugs, pesticides and various chemicals on GR activity have been investigated. In the current study, GR from baker's yeast (S. cerevisiae) was used and the inhibitory potentials of the synthetized compounds were determined using Beutler method with NADPH and GSSG as substrates and further kinetic studies were performed using the same method.

For orientation: IC50 means the concentration that gives 50% inhibition.

The structures appear in SMILES notation. Where “and” joins values, the source holds several entries; their conditions need not be identical. Equal entries are not always repeated.

With `O=NN(CCCl)C(=O)NCCCl` [N,N-bis(2-chloroethyl)-N-nitrosourea, reference compound], the IC50 stood at 645000 nM. With `Cc1cccc(-c2cccn2C)c1` [Compound 8c], the IC50 stood at 1660 nM. Regarding `COc1ccc(-c2cccn2C)cc1` [Compound 8o], the IC50 was 678 nM and 1440 nM. Then `Cc1ccc(-c2cccn2C)cc1` [Compound 8b], with 1400 nM.

For `Cn1cccc1-c1ccc(F)cc1` [Compound 8i], the IC50 worked out at 1420 nM. With `Cn1cccc1-c1ccccc1[N+](=O)[O-]` [Compound 8m], the IC50 worked out at 104 nM. `COc1ccccc1-c1cccn1C` [Compound 8n]: the half-maximal inhibitory concentration (IC50) worked out at 678 nM.

Regarding `Cn1cccc1-c1ccc(C#N)cc1` [Compound 8r], the IC50 came out at 1790 nM.

As to `Cn1cccc1-c1ccc(OC(F)(F)F)cc1` [Compound 8q], the IC50 was found to be 846 nM. Consider `Cc1ccccc1-c1cccn1C` [Compound 8d], for which the IC50 came to 1050 nM. In the case of `Cn1cccc1-c1ccccc1` [Compound 8a], the concentration for half-maximal inhibition (IC50) is 4940 nM.

`Cn1cccc1-c1ccc(Br)cc1` [Compound 8e]: the IC50 was determined as 1500 nM.

(Values after paper PMC6211254, “Determination of the inhibitory effects of N-methylpyrrole derivatives on glutathione reductase enzyme” (Journal of Enzyme Inhibition and Medicinal Chemistry, 2018).)
